Measured values: article PMC7238241, “Lack of Correlation between In Vitro and In Vivo Studies on the Inhibitory Effects of (‒)-Sophoranone on CYP2C9 Is Attributable to Low Oral Absorption and Extensive Plasma Protein Binding of (‒)-Sophoranone” (Pharmaceutics, 2020)
Where “and” joins values, the source holds several entries; their conditions need not be identical. Identical values can stand only once.

Key:
CYP2E1 = biological target: T1, CYP2E1 (Homo sapiens, UniProt P05181); assay: Reversible CYP2E1 inhibition, cocktail assay (chlorzoxazone 6-hydroxylase) in human liver microsomes; assay type: biochemical
T1 construct: tissue Corning Life Sciences; host or cells: pooled human liver microsomes, 150 donors
T1 sequence (P05181 whole entry): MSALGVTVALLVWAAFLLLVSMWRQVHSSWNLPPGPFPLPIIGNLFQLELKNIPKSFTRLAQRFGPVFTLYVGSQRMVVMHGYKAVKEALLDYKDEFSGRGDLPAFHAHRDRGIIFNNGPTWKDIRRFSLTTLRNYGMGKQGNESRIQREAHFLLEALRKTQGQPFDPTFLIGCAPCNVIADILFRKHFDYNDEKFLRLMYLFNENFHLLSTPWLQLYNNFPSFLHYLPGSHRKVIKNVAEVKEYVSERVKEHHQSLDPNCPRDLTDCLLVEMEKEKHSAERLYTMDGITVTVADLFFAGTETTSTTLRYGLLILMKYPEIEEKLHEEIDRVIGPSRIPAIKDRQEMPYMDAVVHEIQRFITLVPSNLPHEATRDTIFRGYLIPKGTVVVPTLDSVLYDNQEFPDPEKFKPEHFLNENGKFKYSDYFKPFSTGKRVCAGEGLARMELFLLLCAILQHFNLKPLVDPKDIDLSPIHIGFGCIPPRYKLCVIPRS
Protocol: (§1) The inhibitory effects of SPN on CYP1A2, CYP2A6, CYP2B6, CYP2C8, CYP2C9, CYP2C19, CYP2D6, CYP2E1, and CYP3A4 were evaluated in pooled human liver microsomes through the use of specific CYP probe substrates (cocktail assay), as previously described with a slight modification. Concentrations of each CYP probe in Table 1 were used close to their reported Km values.
Briefly, a 90-µL incubation mixture, including pooled human liver microsomes (final concentration 0.1 mg/mL), 50 mM phosphate buffer (pH 7.4), each CYP-probe substrate cocktail set, and SPN (0–50 μM), was pre-incubated for 5 min at 37 °C. SPN was dissolved in methanol and spiked into the incubation mixture to a final concentration of 0.5% methanol. All P450-selective substrates (except coumarin due to solubility) were dissolved in methanol and serially diluted with methanol to the required concentrations, and the organic solvent was subsequently evaporated under a gentle stream of N2 gas to minimize the effects of organic solvents on CYP activities. On the other hand, coumarin dissolved in 50 mM phosphate buffer (pH 7.4) was directly added into the mixed tube. The reaction was initiated by adding 10-µL aliquot of NADPH-generating system (1.3 mM NADP^+, 3.3 mM glucose 6-phosphate, 3.3 mM MgCl2, and 0.4 unit/mL glucose-6-phosphate dehydrogenase) before 15 min incubation at 37 °C in a shaking water bath. […]
(§2) The IC50 values were calculated via nonlinear least-squares regression analysis from logarithmic plots of inhibitor concentration versus percentage of activity remaining after inhibition, using SigmaPlot (ver. 14.0; Systat Software Inc, Chicago, IL, USA). The Ki values were determined from the equations for a single substrate single inhibitor model and the software available in the SigmaPlot Enzyme Kinetics module. Competitive, non-competitive, uncompetitive, or mixed inhibition models were evaluated and ranked according to the best fit based on Akaike Information Criterion (AIC) values. […]

[1] = Effects of SPN on the pharmacokinetics of diclofenac in rats; conditions: rats
Protocol: The carotid arteries of each rat were cannulated with a polyethylene tube (Clay Adams, Franklin Lakes, NJ, USA) for blood sampling. Each rat was individually housed in a rat metabolic cage and allowed to recover from anesthesia for 4–5 h prior to the start of the experiment. […] SPN was suspended in dimethylsulfoxide:PEG400:distilled water (5:60:35, v/v/v) and administered by oral gavage at a dose of 75 mg/kg in a volume of 5 mL/kg. […] The blood samples were immediately centrifuged at 13,000× g for 5 min at 4 °C. The plasma samples were divided into two Eppendorf tubes by 50 μL and stored at −80 °C until LC-MS/MS analysis.
Briefly, 50 μL aliquots of plasma were extracted with 300 μL aliquots of acetonitrile containing chlorpropamide (internal standard), followed by LC-MS/MS (Shimadzu Corporation). Chromatographic separation was performed on a Phenomenex Luna C18 column (100 × 2.00 mm; 3.0 μm). The isocratic mobile phase consisted of 0.1% formic acid in distilled water (A) and 0.1% formic acid in acetonitrile (B) (45:55, v/v), with a flow rate of 0.3 mL/min. […] The data acquisition was computed using LabSolutions LCMS Ver.5.6 (Shimadzu Corporation).
Pharmacokinetic parameters were calculated by a non-compartmental analysis using WinNonlin Professional software (version 5.2, Pharsight Corp., Mountain View, CA, USA) that used the total area under the plasma concentration–time curve from time zero to infinity (AUC∞) or the last measured time (AUCt). The logarithmic trapezoidal rule was used during the declining plasma level phase and the linear trapezoidal rule was used for the rising plasma-level phase. The peak plasma concentration (Cmax) and time to reach Cmax (Tmax) were read directly from the experimental data. Statistically significant differences were recognized at p < 0.05.

[2] = Unbound fraction in rat plasma (rapid equilibrium dialysis); assay type: in vitro ADME
Protocol: The plasma or liver microsomal protein bindings were performed using a rapid equilibrium dialysis device and cellulose membranes with a molecular weight cutoff of 8000 (Thermo Scientific, Rockford, IL, USA). The rat and human plasma samples (200 μL) containing SPN at 10 and 50 μM, respectively, were dialyzed against a dialysis buffer, phosphate-buffered saline (PBS, 400 μL). The loaded dialysis plate was covered with sealing tape, placed on an orbital shaker at approximately 200 rpm, and incubated at 37 °C for 4 h. Thereafter, samples (100 μL) from both PBS and plasma chambers were collected and mixed with an equal volume of blank plasma and PBS, respectively. All samples were stored at −80 °C until LC-MS/MS analysis. The unbound fraction of SPN in human (or rat) plasma was calculated by dividing the SPN concentration in PBS by that in plasma.

CYP2B6 = biological target: T2, CYP2B6 (Homo sapiens, UniProt P20813); assay: Reversible CYP2B6 inhibition, cocktail assay (bupropion hydroxylase) in human liver microsomes; assay type: biochemical
T2 construct: tissue Corning Life Sciences; host or cells: pooled human liver microsomes, 150 donors
T2 sequence (P20813 1-491): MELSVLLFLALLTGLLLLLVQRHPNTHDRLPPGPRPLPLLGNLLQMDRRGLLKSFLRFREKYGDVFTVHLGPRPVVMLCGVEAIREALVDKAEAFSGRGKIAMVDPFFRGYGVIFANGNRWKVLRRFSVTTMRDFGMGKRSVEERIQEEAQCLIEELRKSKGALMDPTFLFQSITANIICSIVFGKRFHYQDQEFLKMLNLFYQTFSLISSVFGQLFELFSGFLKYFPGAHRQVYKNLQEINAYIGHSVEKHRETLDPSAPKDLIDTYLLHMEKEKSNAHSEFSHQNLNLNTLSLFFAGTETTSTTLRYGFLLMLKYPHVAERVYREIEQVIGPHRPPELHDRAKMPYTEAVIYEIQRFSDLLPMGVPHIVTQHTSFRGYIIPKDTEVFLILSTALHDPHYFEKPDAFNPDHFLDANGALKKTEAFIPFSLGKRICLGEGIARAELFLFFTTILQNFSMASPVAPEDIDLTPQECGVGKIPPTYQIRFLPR
Protocol: as §1
Briefly, a 90-µL incubation mixture, including pooled human liver microsomes (final concentration 0.1 mg/mL), 50 mM phosphate buffer (pH 7.4), each CYP-probe substrate cocktail set, and SPN (0–50 μM), was pre-incubated for 5 min at 37 °C. SPN was dissolved in methanol and spiked into the incubation mixture to a final concentration of 0.5% methanol. […]
as §2

[3] = at the highest tested concentration (50 μM)

- residual enzyme activity, CYP2E1 (CYP2E1; [3]): greater than 80%
- IC50 (CYP2E1; human liver microsomes 0.1 mg/mL, cocktail assay, chlorzoxazone probe, n = 3, read-out: IC50 Values, CYP2E1): > 50 µM
- Cmax ([1]; male, Sprague-Dawley, rat, plasma, po, Cmax of SPN, oral SPN 75 mg/kg co-administered with diclofenac 2 mg/kg, n = 6): 33.7 ng/mL and 73.2 nM
- Imax,u (unbound maximum concentration in plasma) ([1]; oral SPN 75 mg/kg, Cmax corrected for plasma protein binding): 0.0420 ± 0.0184 nM
- fraction unbound at 4 h, 10 µM ([2]; 10 μM, 37 °C, 4 h, n = 3, read-out: free fraction in rat plasma): 0.00038 ± 0.000102
- fraction unbound at 4 h, 50 µM ([2]; 50 μM, 37 °C, 4 h, n = 3, read-out: free fraction in rat plasma): 0.000531 ± 0.000149
- fraction unbound at 4 h ([2]; 10 and 50 μM, read-out: plasma protein binding, rat): < 0.001
- residual enzyme activity, CYP2B6 (CYP2B6; [3]): greater than 80%
- IC50 (CYP2B6; human liver microsomes 0.1 mg/mL, cocktail assay, bupropion probe, n = 3): > 50 µM
SMILES: CC(C)=CCc1cc([C@@H]2CC(=O)c3ccc(O)c(CC=C(C)C)c3O2)cc(CC=C(C)C)c1O [SPN, (‒)-Sophoranone]
- effect of co-administration on the pharmacokinetics of diclofenac and 4′-hydroxydiclofenac ([1]; oral SPN 75 mg/kg 15 min before oral diclofenac 2 mg/kg): did not alter the pharmacokinetics of diclofenac and 4′-hydroxydiclofenac
